Test results published in patent US10570099B2, “Salts of an epidermal growth factor receptor kinase inhibitor” (Celgene CAR LLC, priority 2012, dated 2020).

Experiment: 1 week stability of primary screen salts at 40° C./75% RH and 80° C. (open vials, XRPD)
Type: physicochemical
Procedure: (open vials). TGA was carried out after the stability studies for samples containing sufficient material.

Row | Structure (SMILES) | Stability 40° C./75% RH (open conditions) | Stability 80° C. (open conditions)
1 | C=CC(=O)Nc1cccc(Nc2nc(Nc3ccc(N4CCN(C(C)=O)CC4)cc3OC)ncc2C(F)(F)F)c1.O=S(=O)(O)c1cccc2c(S(=O)(=O)O)cccc12 | No form change, | Possible form change,
2 | C=CC(=O)Nc1cccc(Nc2nc(Nc3ccc(N4CCN(C(C)=O)CC4)cc3OC)ncc2C(F)(F)F)c1.O=S(=O)(O)c1ccc2ccccc2c1 | No form change, small | No form change,
3 | C=CC(=O)Nc1cccc(Nc2nc(Nc3ccc(N4CCN(C(C)=O)CC4)cc3OC)ncc2C(F)(F)F)c1.O=S(=O)(O)c1ccccc1 [Besylate (1 equiv.) Form II] | No form change, some | No form change, some
4 | C=CC(=O)Nc1cccc(Nc2nc(Nc3ccc(N4CCN(C(C)=O)CC4)cc3OC)ncc2C(F)(F)F)c1.O=S(=O)(O)c1ccccc1 [Besylate (1 equiv.) Form I] | No form change, | No form change,
5 | C=CC(=O)Nc1cccc(Nc2nc(Nc3ccc(N4CCN(C(C)=O)CC4)cc3OC)ncc2C(F)(F)F)c1.O=S(=O)(O)c1ccccc1.O=S(=O)(O)c1ccccc1 [Besylate (2 equiv.) Form II] | No form change, | No form change,
6 | C=CC(=O)Nc1cccc(Nc2nc(Nc3ccc(N4CCN(C(C)=O)CC4)cc3OC)ncc2C(F)(F)F)c1.CC1(C)C2CCC1(CS(=O)(=O)O)C(=O)C2 [Camphor-10-sulfonic acid (1 eq.) Form II] | – | Converted to Form I,
7 | C=CC(=O)Nc1cccc(Nc2nc(Nc3ccc(N4CCN(C(C)=O)CC4)cc3OC)ncc2C(F)(F)F)c1.CC1(C)C2CCC1(CS(=O)(=O)O)C(=O)C2 [Camphor-10-sulfonic acid (1 eq.) Form I] | No form change, slight | No form change,
8 | C=CC(=O)Nc1cccc(Nc2nc(Nc3ccc(N4CCN(C(C)=O)CC4)cc3OC)ncc2C(F)(F)F)c1.CC1(C)C2CCC1(CS(=O)(=O)O)C(=O)C2.CC1(C)C2CCC1(CS(=O)(=O)O)C(=O)C2 [Camphor-10-sulfonic acid (2 eq.) Form I] | Amorphous | Amorphous
9 | Br.Br.C=CC(=O)Nc1cccc(Nc2nc(Nc3ccc(N4CCN(C(C)=O)CC4)cc3OC)ncc2C(F)(F)F)c1 [HBr (2 eq.) Form II] | Changed to Form I, | Potential new form,
10 | C=CC(=O)Nc1cccc(Nc2nc(Nc3ccc(N4CCN(C(C)=O)CC4)cc3OC)ncc2C(F)(F)F)c1.Cl [Hydrochloride (1 equiv.) Form I] | No form change, | No form change,
11 | C=CC(=O)Nc1cccc(Nc2nc(Nc3ccc(N4CCN(C(C)=O)CC4)cc3OC)ncc2C(F)(F)F)c1.Cl.Cl [Hydrochloride (2 equiv.) Form I] | No form change, | No form change,
12 | C=CC(=O)Nc1cccc(Nc2nc(Nc3ccc(N4CCN(C(C)=O)CC4)cc3OC)ncc2C(F)(F)F)c1.O=C(O)/C=C\C(=O)O [Maleate Form III] | No clear form change | No clear form change
13 | C=CC(=O)Nc1cccc(Nc2nc(Nc3ccc(N4CCN(C(C)=O)CC4)cc3OC)ncc2C(F)(F)F)c1.O=C(O)/C=C\C(=O)O [Maleate Form II] | No form change, | No form change,
14 | C=CC(=O)Nc1cccc(Nc2nc(Nc3ccc(N4CCN(C(C)=O)CC4)cc3OC)ncc2C(F)(F)F)c1.O=C(O)/C=C\C(=O)O [Maleate Form I] | No form change, | No form change,
15 | C=CC(=O)Nc1cccc(Nc2nc(Nc3ccc(N4CCN(C(C)=O)CC4)cc3OC)ncc2C(F)(F)F)c1.CS(=O)(=O)O.CS(=O)(=O)O [Mesylate Form I] | Gum formed | Amorphous solid
16 | C=CC(=O)Nc1cccc(Nc2nc(Nc3ccc(N4CCN(C(C)=O)CC4)cc3OC)ncc2C(F)(F)F)c1.O=S(=O)(O)c1ccc2ccccc2c1.O=S(=O)(O)c1ccc2ccccc2c1 [Naphthalene-2-sulfonic acid (2 eq.) Form III] | Converted to Form II, | Converted to Form II,
17 | C=CC(=O)Nc1cccc(Nc2nc(Nc3ccc(N4CCN(C(C)=O)CC4)cc3OC)ncc2C(F)(F)F)c1.O=S(=O)(O)c1ccc2ccccc2c1.O=S(=O)(O)c1ccc2ccccc2c1 [Naphthalene-2-sulfonic acid (2 eq.) Form II] | No form change, | –
18 | C=CC(=O)Nc1cccc(Nc2nc(Nc3ccc(N4CCN(C(C)=O)CC4)cc3OC)ncc2C(F)(F)F)c1.O=S(=O)(O)c1ccc2ccccc2c1.O=S(=O)(O)c1ccc2ccccc2c1 [Naphthalene-2-sulfonic acid (2 eq.) Form IV] | Converted to Form II, | Converted to Form II,
19 | C=CC(=O)Nc1cccc(Nc2nc(Nc3ccc(N4CCN(C(C)=O)CC4)cc3OC)ncc2C(F)(F)F)c1.O=S(=O)(O)c1ccc2ccccc2c1.O=S(=O)(O)c1ccc2ccccc2c1 [Naphthalene-2-sulfonic acid (2 eq.) Form I] | No form change, poor | No form change, poor
20 | C=CC(=O)Nc1cccc(Nc2nc(Nc3ccc(N4CCN(C(C)=O)CC4)cc3OC)ncc2C(F)(F)F)c1.O=C(O)C(=O)O [Oxalate Form II] | No form change, | Amorphous brown
21 | C=CC(=O)Nc1cccc(Nc2nc(Nc3ccc(N4CCN(C(C)=O)CC4)cc3OC)ncc2C(F)(F)F)c1.O=C(O)C(=O)O [Oxalate Form I] | No form change, | No form change,
22 | C=CC(=O)Nc1cccc(Nc2nc(Nc3ccc(N4CCN(C(C)=O)CC4)cc3OC)ncc2C(F)(F)F)c1.Cc1ccc(S(=O)(=O)O)cc1 [Tosylate (1 equiv.) Form II] | Gum formed | Possible form change,
23 | C=CC(=O)Nc1cccc(Nc2nc(Nc3ccc(N4CCN(C(C)=O)CC4)cc3OC)ncc2C(F)(F)F)c1.Cc1ccc(S(=O)(=O)O)cc1 [Tosylate (1 equiv.) Form I] | No form change, | No form change,
24 | C=CC(=O)Nc1cccc(Nc2nc(Nc3ccc(N4CCN(C(C)=O)CC4)cc3OC)ncc2C(F)(F)F)c1.Cc1ccc(S(=O)(=O)O)cc1.Cc1ccc(S(=O)(=O)O)cc1 [Tosylate (2 equiv.) Form II] | Gum formed | Possible form change,
25 | C=CC(=O)Nc1cccc(Nc2nc(Nc3ccc(N4CCN(C(C)=O)CC4)cc3OC)ncc2C(F)(F)F)c1.Cc1ccc(S(=O)(=O)O)cc1.Cc1ccc(S(=O)(=O)O)cc1 [Tosylate (2 equiv.) Form I] | No form change, | No form change,
